Measured values published in patent US8722676B2, “Bicyclic piperazine compounds” (Genentech, Inc., priority 2011, dated 2014).

Test system: production of CD69 by B lymphocytes in human whole blood activated with goat F(ab')2 anti-human IgM
Test: CD69 Whole Blood Assay (CD69 Hu Blood FACS)
Assay type: cell-based
Conditions: anti-IgM stimulated, 20 hour incubation, CD69+ of CD20+ cells, Table 2
From the text: A CD69 Whole Blood Assay can be conducted on Formula I compounds to determine the ability of compounds to inhibit the production of CD69 by B lymphocytes in human whole blood activated by crosslinking surface IgM with goat F(ab′)2 anti-human IgM (Example 907). CD69 is a type II C-type lectin involved in lymphocyte migration and cytokine secretion. CD69 expression represents one of the earliest available indicators of leukocyte activation and its rapid induction occurs through transcriptional activation (Vazquez et al (2009) Jour. of Immunology Published Oct. 19, 2009, doi:10.4049/jimmunol.0900839). Concentration-dependent inhibition of antigen receptor stimulation by selective Btk inhibitors induces cell surface expression of the lymphocyte activation marker CD69 (Honigberg et al (2010) Proc. Natl. Acad. Sci. 107(29):13075-13080). Thus, CD69 inhibition by selective Btk inhibitors may be correlated with therapeutic efficacy of certain B-cell disorders.
Human blood is obtained from healthy volunteers, with the following restrictions: 1 week drug-free, non-smokers. Blood (approximately 20 mls to test 8 compounds) is collected by venipuncture into Vacutainer® (Becton, Dickinson and Co.) tubes with sodium heparin.
Solutions of Formula I compounds at 10 mM in DMSO are diluted 1:10 in 100% DMSO, then are diluted by three-fold serial dilutions in 100% DMSO for a ten point dose-response curve. The compounds are further diluted 1:10 in PBS and then an aliquot of 5.5 μl of each compound is added in duplicate to a 2 ml 96-well plate; 5.5 μl of 10% DMSO in PBS is added as control and no-stimulus wells. Human whole blood—HWB (100 μl) is added to each well. After mixing the plates are incubated at 37° C., 5% CO2, 100% humidity for 30 minutes. Goat F(ab′)2 anti-human IgM (10 μl of a 500 μg/ml solution, 50 μg/ml final) is added to each well (except the no-stimulus wells) with mixing and the plates are incubated for an additional 20 hours. At the end of the 20 hour incubation, samples are incubated with fluorescent labeled antibodies for 30 minutes, at 37° C., 5% CO2, 100% humidity. Include induced control, unstained and single stains for compensation adjustments and initial voltage settings. Samples are then lysed with PharM Lyse™ (BD Biosciences Pharmingen) according to the manufacturer's instructions. Samples are then transferred to a 96 well plate suitable to be run on the BD Biosciences HTS 96 well system on the LSRII machine. Data acquired and Mean Fluorescence Intensity values were obtained using BD Biosciences DIVA Software. Results are initially analyzed by FACS analysis software (Flow Jo).

Row | Structure (SMILES) | CD69 Hu Blood FACS IC70 [nM]
1 | O=C1c2cc3c(n2CCN1c1nccc(-c2cc(Nc4ccc(N5CCN(C6COC6)CC5)cn4)c4nccn4c2)c1CO)CCCC3 [Compound 121, 2-[3-(hydroxymethyl)-4-[8-[[5-[4-(oxetan-3-yl)piperazin-1-yl]-2-pyridyl]amino]imidazo[1,2-a]pyridin-6-yl]-2-pyridyl]-3,4,6,7,8,9-hexahydropyrazino[1,2-a]indol-1-one] | 279
2 | O=C1c2cc3c(n2CCN1c1nccc(-c2cc(Nc4ccc(N5CCN(C6COC6)CC5)cn4)c4ncnn4c2)c1CO)CCCC3 [Compound 122, 2-[3-(hydroxymethyl)-4-[8-[[5-[4-(oxetan-3-yl)piperazin-1-yl]-2-pyridyl]amino]-[1,2,4]triazolo[1,5-a]pyridin-6-yl]-2-pyridyl]-3,4,6,7,8,9-hexahydropyrazino[1,2-a]indol-1-one] | 208
3 | CC1(C)Cc2cc3n(c2C1)CCN(c1cc(F)cc(-c2nc(Nc4ccc(N5CCN(C6COC6)CC5)cc4)c4nc[nH]c4n2)c1CO)C3=O [Compound 123, 3-[5-fluoro-2-(hydroxymethyl)-3-[6-[4-[4-(oxetan-3-yl)piperazin-1-yl]anilino]-9H-purin-2-yl]phenyl]-7,7-dimethyl-1,2,6,8-tetrahydrocyclopenta[3,4]pyrrolo[3,5-b]pyrazin-4-one] | 256
4 | CN1CCn2nc(Nc3cc(-c4ccnc(N5CCn6c(cc7c6CCCC7)C5=O)c4CO)nn4ccnc34)cc2C1 [Compound 124, 2-[3-(hydroxymethyl)-4-[8-[(5-methyl-6,7-dihydro-4H-pyrazolo[1,5-a]pyrazin-2-yl)amino]imidazo[1,2-b]pyridazin-6-yl]-2-pyridyl]-3,4,6,7,8,9-hexahydropyrazino[1,2-a]indol-1-one] | 333
